In patent US6300350A, “Treatment of emphysema using RARy selective retinoid agonists” (priority 2000, dated 2001):

Legend:
[1] = molecular target: T1, RARγ (Homo sapiens, UniProt P13631); experiment: Transactivation, RARγ; format: cell-based
T1 sequence (P13631 1-454): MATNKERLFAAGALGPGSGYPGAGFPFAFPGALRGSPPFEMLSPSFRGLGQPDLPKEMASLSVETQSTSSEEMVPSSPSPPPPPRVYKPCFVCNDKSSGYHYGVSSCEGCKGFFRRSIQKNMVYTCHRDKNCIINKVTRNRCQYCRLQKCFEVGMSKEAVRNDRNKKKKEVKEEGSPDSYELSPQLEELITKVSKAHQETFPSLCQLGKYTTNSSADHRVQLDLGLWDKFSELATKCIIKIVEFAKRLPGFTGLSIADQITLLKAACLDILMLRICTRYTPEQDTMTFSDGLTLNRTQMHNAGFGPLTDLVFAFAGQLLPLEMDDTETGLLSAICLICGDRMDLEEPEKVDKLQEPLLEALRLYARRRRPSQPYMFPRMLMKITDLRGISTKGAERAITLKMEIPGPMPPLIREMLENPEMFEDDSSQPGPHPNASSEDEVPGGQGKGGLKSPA
From the text: (§1) As used herein, the term "transactivation" refers to the ability of a retinoid to activate the transcription of a gene where the gene transcription is initiated by the binding of a ligand to the particular retinoic acid receptor being tested, i.e., RARα, RARβ, or RARγ. Determining the ability of a compound to transactivate a retinoic acid receptor may be performed by methods known to those of skill in the art. […] Apfel etal., Proc. Nat.

[2] = tested on: tropoelastin gene; experiment: RAR transactivation of steady state tropoelastin gene in normal human lung fibroblasts (CCD-16Lu); format: cell-based; details: for Tropo-elastin Expression: CCD-16Lu, 1×10^-7 M, RT-PCR, triplicate, untreated control 30.90; for tropoelastin gene induction (in words): human lung fibroblasts, compared to the control
Experimental: Transactivation of the tropoelastin gene in normal human lung fibroblasts (CCD-16Lu) was performed as described below. Cells were grown to confluence at which time fresh media +/- ATRA or selective retiniod was added to the basal culture. ATRA and/or selective retiniods were used at a concentration of 1×10^-7 M. The cell layer was lysed using a guanidinium-based buffer (TRIZOL/Sigma) for RNA extraction and analysis. Amplification of tropoelastin and GAPDH RNA was performed by standard quantitative RT-PCR (TAQMAN, Perken/Elmer) using appropriate selective primers. Tropo-elastin gene expression was normalized to the expression of standard house-keeping gene (GAPDH).
Samples were run in triplicate.

[3] = tested on: elastase-induced emphysema; experiment: Alveolar repair in rat model of elastase-induced emphysema, intraperitoneal; format: in vivo, male Sprague Dawley rats; set-up: Alveolar Area: unit not given here; details: for % Repair / Alveolar Area: 0.5 mg/kg ip once daily, from 21 days post injury, 14 days; for Alveolar Area: naive 1637 +/- 153, elastase + vehicle 3570 +/- 319; for alveolar repair (in words): elastase-treated rats, 0.5 mg/kg ip; for light micrographs of lung sections (in words): rat lung damaged by elastase and then treated, compared to normal rat lung
Experimental: Animals were divided into treatment groups of approximately eight. […] Three weeks post injury ATRA or a RAR selective agonist was dissolved in DMSO (20 mg/ml) and stored at -20 C. Fresh working stocks were prepared fresh daily by dilution in corn oil to a final concentration of 2 mg/ml. […] Control groups were challenged with elastase and 21 days later treated with Vehicle (DMSO/PBS) for 14 days. Animals were sacrificed 24 hours after the last dose of by exsanguination under deep anesthesia. Blood was collected at time of exanguination for analysis of changes in blood chemistry from respective treatments. The lungs were inflated with 10% neutral buffered formalin by intratracheal instillation at a constant rate (1 ml/gram body mass/min). The lung was excised and immersed in fixative for 24 hours prior to processing. Standard methods were used to prepare 5 um paraffin sections. Sections were stained with Hematoxylin and Eosin (H%E). Computerized Morphometric analysis was performed to determine the average alveolar size and alveolar number.

[4] = molecular target: T2, RARβ (Homo sapiens, UniProt P10826); experiment: Transactivation, RARβ; format: cell-based
T2 sequence (P10826 1-455): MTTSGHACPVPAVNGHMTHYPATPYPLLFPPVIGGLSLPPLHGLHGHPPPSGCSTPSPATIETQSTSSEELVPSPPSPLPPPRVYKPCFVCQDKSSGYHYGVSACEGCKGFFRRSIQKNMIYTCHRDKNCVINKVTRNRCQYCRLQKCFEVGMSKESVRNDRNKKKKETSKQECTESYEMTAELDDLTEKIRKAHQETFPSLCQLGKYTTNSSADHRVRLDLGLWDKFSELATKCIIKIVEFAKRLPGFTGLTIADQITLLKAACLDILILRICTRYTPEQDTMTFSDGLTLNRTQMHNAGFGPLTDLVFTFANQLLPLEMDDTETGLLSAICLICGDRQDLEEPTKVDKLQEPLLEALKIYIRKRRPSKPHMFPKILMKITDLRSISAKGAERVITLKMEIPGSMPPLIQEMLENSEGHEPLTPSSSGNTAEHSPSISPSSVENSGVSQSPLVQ
From the text: as §1

[5] = molecular target: T3, RARα (Homo sapiens, UniProt P10276); experiment: Binding, RARα (ligand binding assay)
T3 sequence (P10276 1-462): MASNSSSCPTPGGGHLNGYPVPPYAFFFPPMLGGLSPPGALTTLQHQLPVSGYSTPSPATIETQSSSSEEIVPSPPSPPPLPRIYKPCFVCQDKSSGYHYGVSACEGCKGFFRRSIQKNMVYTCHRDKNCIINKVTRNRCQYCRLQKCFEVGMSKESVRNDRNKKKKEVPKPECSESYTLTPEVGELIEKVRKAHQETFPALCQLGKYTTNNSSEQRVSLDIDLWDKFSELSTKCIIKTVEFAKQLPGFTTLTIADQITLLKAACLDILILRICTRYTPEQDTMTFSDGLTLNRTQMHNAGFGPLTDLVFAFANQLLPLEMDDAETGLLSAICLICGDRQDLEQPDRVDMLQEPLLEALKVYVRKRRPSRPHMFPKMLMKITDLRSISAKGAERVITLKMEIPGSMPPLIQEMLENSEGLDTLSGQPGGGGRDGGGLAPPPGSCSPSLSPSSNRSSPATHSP
From the text: (§2) The RARγ agonist selectivity of a compound can be determined by routine ligand binding assays known to one of skill in the art such as described in C. Apfel et al., Proc. Nat.

[6] = molecular target: T2, RARβ; experiment: Binding, RARβ (ligand binding assay)
From the text: as §2

[7] = molecular target: T3, RARα; experiment: Transactivation, RARα; format: cell-based
From the text: as §1

[8] = molecular target: T1, RARγ; experiment: Binding, RARγ (ligand binding assay)
From the text: as §2

[9] = Plasma triglyceride levels in rats; format: in vivo
Experimental: Experimental emphysema was induced in rats as described in Example 2. Three (3) weeks post injury animals were treated with vehicle (Capmul solution) or retinoids prepared in Capmul and dosed orally at 1, 3, and 10 mg/kg body weight. Animals were treated for 14 days prior to termination of study. Lung harvest and blood collection was performed as described in Example 2.
Quantitation of triglycerides contained in rat plasma was performed after using established procedures in a contact clinical laboratory facility. Briefly, plasma triglycerides were converted to dihdroxyacetone and H2 O2, by sequential treatment of plasma with lipase and glycerokinase according directions described by manufacturer of triglycerides/GPO kit (Boehringer Mannheim #1488872). H2 02 was quantitated calorimetrically in a Hitachi 911 Chemistry Analyzer. In rats normal triglyceride levels are 75-175 mg/dl.
Dosage was at 1 mg/kg/PO daily for two weeks. […] Therefore, it appears that RARα selective activity is linked to elevated triglyceride levels.

[10] = tested on: experimental emphysema; experiment: Alveolar repair in rat experimental emphysema, oral dosing; format: in vivo, rats; details: 1 mg/kg/PO daily for two weeks
Experimental: Three (3) weeks post injury animals were treated with vehicle (Capmul solution) or retinoids prepared in Capmul and dosed orally at 1, 3, and 10 mg/kg body weight. Animals were treated for 14 days prior to termination of study.
Dosage was at 1 mg/kg/PO daily for two weeks.

[11] = tested on: alveolar septation; details: postnatal administration; newborn rats; cited from earlier work
[12] = plasma, 1 mg/kg/PO daily for two weeks
[13] = plasma, 1 mg/kg/PO daily for two weeks, normal rat 75-175 mg/dl

Structure (SMILES): O=C(O)c1ccc(NC(=O)c2cc(C(F)(F)F)cc(C(F)(F)F)c2)cc1 [RAR Agonist 1, reference compound]
- EC50 ([1]; Table II): 10000 nM
- EC50 ([1]; Table III): 10000 nM
- Tropo-elastin Expression [2]: 13.93 (Elastin/GAPDH) × 10^5
- tropoelastin gene induction (in words) [2]: did not induce the tropoelastin gene
- % Repair [3]: < 20%
- Alveolar Area [3]: 3058 +/- 160
- alveolar repair (in words) [3]: do not induce alveolar repair
- light micrographs of lung sections (in words) [3]: did not reverse the change caused by elastase treatment
- EC50 ([4]; Table II): 10000 nM
- IC50 ([5]; Table II): 300 nM
- IC50 ([6]; Table II): 10 µM
- EC50 ([7]; Table II): 0.0165 µM
- IC50 ([8]; Table II): 10000 nM
- IC50 ([8]; Table III): 10000 nM

Structure (SMILES): CC(C)COc1ccc(-c2ccc3cc(C(=O)O)ccc3c2)cc1C(C)(C)C [RAR Agonist 2, reference compound]
- EC50 ([1]; Table II): 160 nM
- EC50 ([1]; Table III): 160 nM
- Tropo-elastin Expression [2]: 1.85 (Elastin/GAPDH) × 10^5
- tropoelastin gene induction (in words) [2]: did not induce the tropoelastin gene
- % Repair [3]: < 20%
- Alveolar Area [3]: 3653 +/- 550
- alveolar repair (in words) [3]: do not induce alveolar repair
- light micrographs of lung sections (in words) [3]: did not reverse the change caused by elastase treatment
- EC50 ([4]; Table II): 39 nM
- IC50 ([5]; Table II): 1000 nM
- IC50 ([6]; Table II): 0.028 µM
- EC50 ([7]; Table II): 2 µM
- IC50 ([8]; Table II): 300 nM
- IC50 ([8]; Table III): 300 nM

Structure (SMILES): CCCCCC(=O)c1cc2c(cc1/C=C/c1ccc(C(=O)O)cc1)C(C)(C)CCC2(C)C [RAR Agonist 5]
- triglyceride levels (in words) [9, 12]: do not cause elevation in the triglyceride levels
- [Triglyceride] [9, 13]: 119 mg/dL
- EC50 ([1]; Table III): 104 nM
- % Repair [3]: 56%
- Alveolar Area [3]: 2502 +/- 243
- alveolar repair (in words) [3]: markedly induce alveolar repair
- EC50 ([4]; Table III): 10000 nM
- % Repair [10]: 40%
- IC50 ([5]; Table III): 2300 nM
- IC50 ([6]; Table III): 5.4 µM
- EC50 ([7]; Table III): 10 µM
- IC50 ([8]; Table III): 770 nM

Structure (SMILES): CC1(C)CCOc2ccc(C(=O)/C=C/c3ccc(C(=O)O)cc3)cc21 [RAR Agonist 6]
- triglyceride levels (in words) [9, 12]: do not cause elevation in the triglyceride levels
- [Triglyceride] [9, 13]: 140 mg/dL
- EC50 ([1]; Table III): 15 nM
- % Repair [3]: > 70%
- Alveolar Area [3]: 1909 +/- 207
- alveolar repair (in words) [3]: markedly induce alveolar repair
- EC50 ([4]; Table III): 16 nM
- % Repair [10]: 39%
- IC50 ([5]; Table III): 3100 nM
- IC50 ([6]; Table III): 2.1 µM
- EC50 ([7]; Table III): 10 µM
- IC50 ([8]; Table III): 2410 nM

Structure (SMILES): O=C(O)c1ccc2cc(-c3ccc(O)c(C45CC6CC(CC(C6)C4)C5)c3)ccc2c1 [RAR Agonist 7]
- [Triglyceride] ([9]; rat, in vivo, po, 1 mg/kg): 114 mg/dL
- triglyceride levels (in words) ([9]; rat, in vivo, po, 1 mg/kg): do not cause elevation in the triglyceride levels
- % Repair [3]: > 70%
- Alveolar Area [3]: 1817 +/- 241
- alveolar repair (in words) [3]: markedly induce alveolar repair
- EC50 ([4]; Table III): 2300 nM
- % Repair [10]: 66%
- IC50 ([6]; Table III): 4.6 µM

Structure (SMILES): CC1=C(/C=C/C(C)=C/C=C/C(C)=C\C(=O)O)C(C)(C)CCC1 [RAR Agonist 8, reference compound]
- triglyceride levels (in words) [9, 12]: either on the high end of normal or elevated
- [Triglyceride] [9, 13]: 178 mg/dL
- % Repair [10]: 57.1%

Structure (SMILES): CC1(C)CCC(C)(C)c2cc(C(=O)Nc3ccc(C(=O)O)cc3)ccc21 [RAR Agonist 9]
- % Repair [3]: < 20%
- Alveolar Area [3]: 3323 +/- 406
- alveolar repair (in words) [3]: do not induce alveolar repair

Structure (SMILES): CC1=C(/C=C/C(C)=C\C=C\C(C)=C\C(=O)O)C(C)(C)CCC1 [RAR Agonist 10, reference compound]
- triglyceride levels (in words) [9, 12]: either on the high end of normal or elevated
- [Triglyceride] [9, 13]: 273 mg/dL
- % Repair [10]: 58.3%

Structure (SMILES): C[C@@H]1C[C@H]2[C@@H]3CCC4=CC(=O)C=C[C@]4(C)[C@@]3(F)[C@@H](O)C[C@]2(C)[C@@]1(O)C(=O)CO [dexamethasone]
- number of alveoli / septation in lungs (in words) [11]: inhibits the process of septation in the lungs
